Like-named read-outs stand apart in the source and are kept apart here.
Key:
[1] = test system: human VCaP (Vertebral-Cancer of the Prostate) tumor xenografts; experiment: 3-stage efficacy study in castrated mice bearing VCaP tumor xenografts; details: for change in body weight: Stage I treatment period, FIG. 16; for Tumor volume, Day 0 / Tumor volume, Day 43 (Stage I) / Tumor volume, Day 92 (Stage III): mean ± SEM; for Tumor volume, Day 92 (Stage III): abiraterone 100 mg/kg or Compound (I-g) 10 mg/kg once daily for 19 days
clinical = details: human, in vivo
[2] = 28-day toxicology study in rats
[3] = Phase I dose escalation safety
From the text: A traditional 3+3 dose escalation design was implemented. […] Dose increases were dependent upon toxicities.

[4] = test system: patient-derived xenograft (PDX) model TM00298; experiment: Patient-derived xenograft (PDX) model TM00298; type: in vivo, NSG (NOD scid IL2Ry) mice; details: Compound (I-g) 10 mg/kg/day PO, enzalutamide 20 mg/kg/day PO
Experimental: The TM00298 PDX was grown in intact (non-castrate) male NSG (NOD scid IL2Ry) mice.

CYP3A4 = experiment: In vitro CYP3A4 induction; details: in vitro data
mCRPC tumor = experiment: RECIST response by CT scan in mCRPC patient; type: in vivo, human; details: Patient 20, 140 mg/day, after 4 cycles
[5] = not given; remark: listed apart in the source
[6] = test system: patient-derived xenograft (PDX) model TM00298; details: enzalutamide treatment; cited from earlier work
[7] = Stage I, Compound (I-g) 3 mg/kg, abiraterone 100 mg/kg or combination, oral gavage once daily
[8] = Stage III, abiraterone-resistant tumors
[9] = Stage III, abiraterone-resistant tumors, abiraterone 100 mg/kg or Compound (I-g) 10 mg/kg once daily, n = 4

C[C@]12CC[C@H](O)CC1=CC[C@@H]1[C@@H]2CC[C@]2(C)C(c3cccnc3)=CC[C@@H]12 [Abiraterone, (3S,8R,9S,10R,13S,14S)-10,13-dimethyl-17-(pyridin-3-yl)-2,3,4,7,8,9,10,11,12,13,14,15-dodecahydro-1H-cyclopenta[a]phenanthren-3-ol, reference compound]
change in body weight [1]: no significant change in body weight was observed
TGI (%) vs vehicle (Stage I) ([1]; Stage I, Compound (I-g) 3 mg/kg, abiraterone 100 mg/kg or combination, oral gavage once daily, 43 days): 60%
Tumor volume, Day 0 [1, 7]: 135 ± 10 mm^3
Tumor volume, Day 43 (Stage I) [1, 7]: 262 ± 39 mm^3
Tumor volume, Day 92 (Stage III) [1, 8]: 467 ± 85 mm^3
Tumor volume, Day 0 [1, 9]: 365 ± 44 mm^3
reduction in the average abiraterone AUC exposure (1000 mg abiraterone given with 420 mg Compound (I-g), preliminary): 22%
drug-drug interaction (DDI) (abiraterone with Compound (I-g) vs abiraterone alone): no significant DDI was observed
AUC (clinical; Abiraterone AUC0-tau, mean): 417 ng·h/mL
Cmax (clinical; Abiraterone Cmax, mean): 117 ng/mL

N#Cc1ccc(O[C@H]2CC[C@H](NC(=O)c3ccc(N4CCC(CN5CCN(c6cc7c(cc6F)C(=O)N(C6CCC(=O)NC6=O)C7=O)CC5)CC4)nn3)CC2)cc1Cl (some centres unmarked) [Compound (I-g)]
body weight and food consumption ([2]; 80 mg/kg female rat cohort): lost body weight and consumed less food
reversibility of findings (liver hypertrophy, femur physis thickening) ([2]; male high-dose rats, 14-day recovery): fully reversible
prostate weights ([2]; male rats): decreased prostate weights
tolerability ([2]; rats, oral once daily 28 days, males 20, 60, 120 mg/kg, females 20, 40, 120 mg/kg): well tolerated at all doses, with the exception of the 80 mg/kg female cohort
adverse events at grades 2, 3, or 4 ([3]; 35 mg/day cohort (n=3)): no adverse events at grades 2, 3, or 4 were observed
dose limiting toxicity ([3]; 35 mg/day cohort (n=3)): no dose limiting toxicity was observed
dose limiting toxicity ([3]; 70 mg/day cohort (n=4)): no dose limiting toxicity was observed
grade 2 adverse events ([3]; 70 mg/day cohort (n=4)): One patient experienced grade 2 adverse events (diarrhea, fatigue, vomiting)
grade 3 adverse events ([3]; 70 mg/day cohort (n=4)): One patient experienced a grade 3 adverse event (anemia) that was unrelated to the administration of compound (I-g)
dose limiting toxicity ([3]; 140 mg/day cohort (n=8)): no dose limiting toxicity was observed
patients with grade 2 adverse events ([3]; 140 mg/day cohort (n=8)): 50 % of the patients
dose-limiting toxicity ([3]; 280 mg/day cohort (n=7)): one patient experienced dose-limiting toxicity and renal failure
patients with grade 2 or less adverse events ([3]; 280 mg/day cohort (n=7)): 5 patients
reduction of plasma PSA ([4]; vs vehicle): 93%
TGI ([4]; after 20 days, intact male NSG mice): 100%
change in body weight [1]: no significant change in body weight was observed
Tumor volume, Day 0 [1, 7]: 147 ± 8{grave over ( )} mm^3
Tumor volume, Day 43 (Stage I) [1, 7]: 231 ± 26 mm^3
TGI (%) vs Abiraterone (Stage III) ([1]; Stage III, abiraterone-resistant tumors, Compound (I-g) 10 mg/kg once daily for 19 days): growth inhibition was observed
Tumor volume, Day 92 (Stage III) [1, 8]: 305 ± 23 mm^3
Tumor volume, Day 0 [1, 9]: 330 ± 15 mm^3
AUC (clinical): 9120 ng·h/mL
AUC(0-t) (clinical): 3030 ng·h/mL
Cmax (clinical): 451 ng/mL
Tmax (clinical): 6 h
CYP3A4 induction (CYP3A4): induces CYP3A4
tumor response on CT scan (mCRPC tumor): RECIST response
gastrointestinal alterations ([5]; dogs, 3, 10, 30 mg/kg oral once daily, 28 days): Gastrointestinal alterations were observed at all dose levels (including vehicle alone)
prostate weights ([5]; male dogs): decreased prostate weights

CNC(=O)c1ccc(N2C(=S)N(c3ccc(C#N)c(C(F)(F)F)c3)C(=O)C2(C)C)cc1F [enzalutamide, reference compound]
PSA reductions, published report (Jin 2017) [6]: modest PSA reductions were observed
TGI, published report (Jin 2017) [6]: no TGI

From US20250248999A1, “BAVDEGALUTAMIDE AND COMBINATIONS THEREOF FOR USE IN TREATING PROSTATE CANCER” (Arvinas Operations, Inc., priority 2022, published 2025)
